Data taken from patent US9622498B2 (Vera Roasting Company, Inc., priority 2015, dated 2017).

Experiments:
[1] = cited from earlier work
[2] = Solubility of resveratrol in glycerin tested using UV/vis spectroscopy; assay type: physicochemical
From the text: This low solubility inhibits adequate, reproducible absorption from the gastrointestinal tract. For this reason, poor solubility is closely associated with low bioavailability. […] Glycerin engages in H-bonding interactions at both ends of the molecule, forming a 2:1 H-bonding complex.

times more soluble in glycerin than in water ([2]; glycerin versus water): at least 48 times
solubility of resveratrol in glycerin ([2]; glycerin, UV/vis spectroscopy): ≥ 144 mg/100 mL
Compound: Oc1ccc(C=Cc2cc(O)cc(O)c2)cc1 [resveratrol, 3,5,4′-trihydroxystilbene]
solubility of resveratrol in water [1]: approximately 3 mg/100 mL
